This note sets out measurements from ChEMBL document CHEMBL1128050, “The discovery of a novel and potent benzodiazepine receptor pharmacophore” (Bioorg Med Chem Lett, 1995).

The target of one experiment is GABA-A receptor; anion channel (Homo sapiens) (UniProt P14867+P47870+P18507+P28472+P48169+Q99928+Q9UN88+P34903+O00591+O14764+Q8N1C3+P18505+P78334+P47869+P31644+Q16445). Kind of experiment: Inhibition of [3H]flunitrazapam binding to GABA-A central benzodiazepine receptor of guinea pig cerebellum at 10 uM. It counts as tissue-based. The note with it: Cavia porcellus, target entry is the homologue from another species.
Turning to `CN1CCC[C@@H]1Cc1c[nH]c2ccc(-n3ccc4cc(C#N)ccc43)cc12`, the inhibition (in general, the share of the control response that was lost under treatment) was found to be 37%.
The compound `CN1CCC(c2c[nH]c3ccc(-n4ccc5cc(C#N)ccc54)cc23)C1` (centres undefined) returned an inhibition of 34%.

The next experiment deals with GABA-A receptor; anion channel. The experiment can be described thus: Binding affinity to the benzodiazepine receptor assayed using 0.5 nM [3H]flunitrazapam as radioligand in guinea pig cerebellum. Format: tissue-based, Cavia porcellus.
Conditions: not given
On to `CN1CCC[C@@H]1Cc1c[nH]c2ccc(-n3cnc4cc(CN)ccc43)cc12`, for which the IC50 – broadly, the concentration at which inhibition is half-maximal – came to 0.013 µM. In other words, the double-digit nanomolar range.
The compound `c1cnc2c(c1)ncn2-c1ccc2[nH]cc(C[C@H]3CCCN3)c2c1` showed an IC50 of 0.11 µM.
`CN1CCC[C@@H]1Cc1c[nH]c2ccc(-n3cnc4cc(Cl)ccc43)cc12` returned an IC50 of 0.0011 µM.
As for `COCCN1CCC[C@@H]1Cc1c[nH]c2ccc(-n3cnc4cc(C#N)ccc43)cc12`, the IC50 worked out at 0.024 µM.
The same measure, in the same setting: in the case of `CN1CCC[C@@H]1Cc1c[nH]c2ccc(-n3cnc4cc(C#N)ccc43)cc12` it was 0.0028 µM; in that of `Cc1ccc2c(c1)ncn2-c1ccc2[nH]cc(C3CCNCC3)c2c1`, 0.00049 µM; in that of `CN1CCC[C@@H]1Cc1c[nH]c2ccc(-n3cnc4ccccc43)cc12`, 0.016 µM.
`Cc1ccc2c(c1)ncn2-c1ccc2[nH]ccc2c1` yielded an IC50 of 0.00079 µM.
Regarding `CN1CCC[C@@H]1Cc1c[nH]c2ccc(-n3cnc4cccnc43)cc12`, the IC50 was determined as 0.027 µM.
For the compound `N#Cc1ccc2c(c1)ncn2-c1ccc2[nH]cc(C3=CCNCC3)c2c1`, the IC50 came out at 0.00046 µM.
Compound `N#Cc1ccc2c(c1)ncn2-c1ccc2[nH]cc(C3CCNCC3)c2c1` came in with an IC50 of 0.00024 µM.
On to `CN1CCC[C@@H]1Cc1c[nH]c2ccc(-n3cnc4cc(NC(Cc5c[nH]c6ccccc56)C(=O)NC(=O)OCc5ccccc5)ccc43)cc12` (some centres undefined), for which the IC50 turned out to be 0.033 µM.
As to `CN1CCC[C@@H]1Cc1c[nH]c2ccc(Nc3ncccc3[N+](=O)[O-])cc12`, the IC50 turned out to be 9.6 µM.
Regarding `N#Cc1ccc2c(c1)ncn2-c1ccc2[nH]ccc2c1`, the IC50 was 0.018 µM. This IC50 lies about 530-fold lower than the previous one.
In turn, `CN1CCC[C@@H]1Cc1c[nH]c2ccc(-n3ccc4cc(C#N)ccc43)cc12` showed an IC50 of more than 1 µM.
`O=Cc1c[nH]c2ccc(-n3cnc4cccnc43)cc12`: the IC50 stood at 0.209 µM.
In turn, `COCCN1CCC[C@@H]1Cc1c[nH]c2ccc(-n3cnc4cc(CN)ccc43)cc12` yielded an IC50 of 0.055 µM.
The compound `CN1CCC[C@H]1Cc1c[nH]c2ccc(-n3cnc4cc(C#N)ccc43)cc12` showed an IC50 of 0.0018 µM. Compared with the last compound, the IC50 is about 31-fold lower.
`Cc1ccc2c(c1)ncn2-c1ccc2[nH]cc(C[C@H]3CCCN3C)c2c1` displayed an IC50 of 0.00016 µM.
In turn, `CN1CCC[C@@H]1Cc1c[nH]c2ccc(-n3cnc4cc(C#N)cnc43)cc12` returned an IC50 of 0.0098 µM.
Regarding `Cc1ccc2c(c1)ncn2-c1ccc2[nH]cc(C3=CCN(C(=O)OC(C)(C)C)CC3)c2c1`, the IC50 was determined as 0.031 µM.
The same measure, in the same setting: in the case of `Cc1ccnc2c1ncn2-c1ccc2[nH]cc(C[C@H]3CCCN3C)c2c1` it was 0.012 µM; in that of `CN1CCC(c2c[nH]c3ccc(-n4cnc5cc(C#N)ccc54)cc23)C1` (centres undefined), 0.0022 µM; in that of `COCCN1CCC[C@@H]1Cc1c[nH]c2ccc(-n3cnc4cc(NC(=O)Nc5ccccc5)ccc43)cc12`, 0.017 µM.
Regarding `COCCN1CCC(c2c[nH]c3ccc(-n4cnc5cc(C#N)ccc54)cc23)CC1`, the IC50 turned out to be 0.0006 µM.
In turn, `N#Cc1ccc2c(c1)ncn2-c1ccc2[nH]cc(C=O)c2c1` came in with an IC50 of 0.019 µM.

Another experiment deals with GABA-A receptor; anion channel. Kind of experiment: Displacement of [3H]flunitrazapam from GABA-A central benzodiazepine receptor of guinea pig cerebellum. It counts as tissue-based, Cavia porcellus.
Conditions: not given
A general note: Displacement assays read how much labelled ligand stays bound in the presence of the test substance.
The compound `N#Cc1ccc2c(c1)ncn2-c1ccc2[nH]cc(C[C@H]3CCCN3CC3CC3)c2c1` yielded a half-maximal inhibitory concentration (IC50) of 0.027 µM.
